# In ChEMBL document CHEMBL1201862, “PubChem BioAssay data set” (2004):
#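 Compound exposure: 48 hours, 5 concentrations, 96-well plates. Here, GI50 denotes the concentration required for 50% inhibition of growth.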 Active and inactive are the calls of the source. No stated cut-off is given here; in the data, active = GI50 up to about 1.1 µM and inactive = higher.
# Key:
# Assay in all cases: inhibition of tumour cell growth, NCI panel, 48 h
# 786-0 = tested on: 786-0
# A498 = tested on: A498
# A549 = tested on: A549
# ACHN = tested on: ACHN
# CAKI-1 = tested on: CAKI-1
# CCRF-CEM = tested on: CCRF-CEM
# COLO 205 = tested on: COLO 205
# DLD-1 = tested on: DLD-1
# DMS-114 = tested on: DMS-114
# DMS-273 = tested on: DMS-273
# EKVX = tested on: EKVX
# HCC 2998 = tested on: HCC 2998
# HCT-116 = tested on: HCT-116
# HCT-15 = tested on: HCT-15
# HL-60 = tested on: HL-60
# HOP-18 = tested on: HOP-18
# HOP-92 = tested on: HOP-92
# HT-29 = tested on: HT-29
# IGROV-1 = tested on: IGROV-1
# K562 = tested on: K562
# KM-20L2 = tested on: KM-20L2
# KM12 = tested on: KM12
# LOX IMVI = tested on: LOX IMVI
# LXFL 529 = tested on: LXFL 529
# M14 = tested on: M14
# M19-MEL = tested on: M19-MEL
# MOLT-4 = tested on: MOLT-4
# Malme-3M = tested on: Malme-3M
# NCI-H226 = tested on: NCI-H226
# NCI-H23 = tested on: NCI-H23
# NCI-H460 = tested on: NCI-H460
# NCI-H522 = tested on: NCI-H522
# OVCAR-3 = tested on: OVCAR-3
# OVCAR-4 = tested on: OVCAR-4
# OVCAR-5 = tested on: OVCAR-5
# RXF 393 = tested on: RXF 393
# SF-295 = tested on: SF-295
# SF-539 = tested on: SF-539
# SK-MEL-28 = tested on: SK-MEL-28
# SK-MEL-2 = tested on: SK-MEL-2
# SK-MEL-5 = tested on: SK-MEL-5
# SK-OV-3 = tested on: SK-OV-3
# SNB-19 = tested on: SNB-19
# SNB-75 = tested on: SNB-75
# SW-620 = tested on: SW-620
# TK-10 = tested on: TK-10
# UACC-257 = tested on: UACC-257
# UACC-62 = tested on: UACC-62
# UO-31 = tested on: UO-31
structure (smiles),measurement,setting,value
COc1ccc(NC(=O)C(=O)Cc2nc3ccc([N+](=O)[O-])cc3nc2O)c(OC)c1,GI50,786-0,> 100 µM (inactive)
same,GI50,A498,44.6 µM (inactive)
same,GI50,A549,> 100 µM (inactive)
same,GI50,ACHN,> 100 µM (inactive)
same,GI50,CAKI-1,> 100 µM (inactive)
same,GI50,CCRF-CEM,> 100 µM (inactive)
same,GI50,COLO 205,> 100 µM (inactive)
same,GI50,DLD-1,> 100 µM (inactive)
same,GI50,DMS-114,> 100 µM (inactive)
same,GI50,DMS-273,> 100 µM (inactive)
same,GI50,EKVX,> 100 µM (inactive)
same,GI50,HCC 2998,> 100 µM (inactive)
same,GI50,HCT-116,> 100 µM (inactive)
same,GI50,HCT-15,> 100 µM
same,GI50,HL-60,> 100 µM (inactive)
same,GI50,HOP-18,56.1 µM (inactive)
same,GI50,HOP-92,> 100 µM (inactive)
same,GI50,HT-29,> 100 µM (inactive)
same,GI50,IGROV-1,> 100 µM (inactive)
same,GI50,K562,> 100 µM (inactive)
same,GI50,KM-20L2,> 100 µM (inactive)
same,GI50,KM12,> 100 µM (inactive)
same,GI50,LOX IMVI,87.9 µM (inactive)
same,GI50,LXFL 529,> 100 µM (inactive)
same,GI50,M14,> 100 µM (inactive)
same,GI50,M19-MEL,> 100 µM (inactive)
same,GI50,MOLT-4,> 100 µM (inactive)
same,GI50,Malme-3M,> 100 µM (inactive)
same,GI50,NCI-H226,> 100 µM (inactive)
same,GI50,NCI-H23,> 100 µM (inactive)
same,GI50,NCI-H460,> 100 µM (inactive)
same,GI50,NCI-H522,83.4 µM (inactive)
same,GI50,OVCAR-3,> 100 µM (inactive)
same,GI50,OVCAR-4,> 100 µM (inactive)
same,GI50,OVCAR-5,> 100 µM (inactive)
same,GI50,RXF 393,> 100 µM (inactive)
same,GI50,SF-295,> 100 µM (inactive)
same,GI50,SF-539,> 100 µM (inactive)
same,GI50,SK-MEL-28,> 100 µM (inactive)
same,GI50,SK-MEL-2,> 100 µM (inactive)
same,GI50,SK-MEL-5,> 100 µM (inactive)
same,GI50,SK-OV-3,> 100 µM (inactive)
same,GI50,SNB-19,> 100 µM (inactive)
same,GI50,SNB-75,> 100 µM (inactive)
same,GI50,SW-620,> 100 µM (inactive)
same,GI50,TK-10,> 100 µM (inactive)
same,GI50,UACC-257,> 100 µM (inactive)
same,GI50,UACC-62,> 100 µM (inactive)
same,GI50,UO-31,> 100 µM (inactive)
